Among the test systems are A498; HCT-116; HOP-62; IGROV-1; K562; MOLT-4; NCI-H226; NCI/ADR-RES; PC-3; SF-295; SK-MEL-2; SK-OV-3; SN12C; U-251; UO-31; HOP-92; SNB-75; SR.
Experiment in all cases: NCI-60 cell line screen, 48 h

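Tested at 5 concentrations; 48 h exposure; 96-well plates; endpoints linearly interpolated, else capped at highest concentration. At the GI50, growth is halved.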 Activity calls are given as the source filed them. Rule as the data show it: active = GI50 up to about 1.1 µM and inactive = higher.

Experimental findings from ChEMBL document CHEMBL1201862, “PubChem BioAssay data set” (2004) are described below.

For the compound `CC1CC(NN)=Nc2ccccc2N1` (stereo not drawn), the GI50 was > 100 µM (inactive) with A498; > 100 µM (inactive) in the assay on HCT-116; > 100 µM (inactive) in the assay with HOP-62; > 100 µM (inactive) in the assay on IGROV-1; 49.2 µM (inactive) in the assay with K562; > 100 µM (inactive) in the assay on MOLT-4. In addition, the GI50 in the assay with NCI-H226, with NCI/ADR-RES, with PC-3, in the assay on SF-295, with SK-MEL-2 and with SK-OV-3 was > 100 µM (inactive) each time. The GI50 in the assay with SN12C, with U-251 and in the assay with UO-31 was > 100 µM (inactive) each time.

Consider `O=S(=O)(N/C(=N\O)Nc1ccc(Cl)cc1)c1cc2ccccc2o1`, for which the GI50 with HCT-116 is 11.4 µM (inactive); in the assay on HOP-62, 23.6 µM (inactive); in the assay with HOP-92, 13.3 µM (inactive); in the assay with IGROV-1 it was 12.6 µM (inactive); with K562 it was 11.1 µM (inactive); with MOLT-4, 22.6 µM (inactive). Further, the GI50 with NCI-H226 is 33.4 µM (inactive); in the assay on NCI/ADR-RES, 19.8 µM (inactive); in the assay with PC-3, 25.4 µM (inactive); in the assay on SF-295 it was 14.9 µM (inactive); in the assay on SK-MEL-2, 16.6 µM (inactive); in the assay with SK-OV-3, 19.3 µM (inactive). For the same compound, the GI50 in the assay on SN12C was 18.1 µM (inactive); in the assay with SNB-75 it was 38.1 µM (inactive); in the assay on U-251 it was 17.7 µM (inactive); in the assay on UO-31 it was 46.7 µM (inactive).

With `CC(C)(C)C(=O)c1c(O)c2ccccc2c2ccccc2c1=O`, the GI50 with A498 was 50.6 µM (inactive); in the assay on HCT-116, > 100 µM (inactive); in the assay with HOP-62, 82.2 µM (inactive); in the assay with HOP-92, 32.4 µM (inactive); in the assay on MOLT-4, > 100 µM (inactive); in the assay with NCI-H226, 49.4 µM (inactive). The GI50 in the assay on PC-3 was > 100 µM (inactive); in the assay on SF-295, 48.6 µM (inactive); in the assay on SK-MEL-2 it was > 100 µM (inactive); with SK-OV-3, > 100 µM (inactive); in the assay on SN12C, > 100 µM (inactive); with SNB-75, 30.9 µM (inactive). The GI50 with U-251 is 33.3 µM (inactive); in the assay on UO-31 it was 33.2 µM (inactive).

With `C[N+]12C=CC=C1C(N1CCCC1)c1sc(-c3ccc(Cl)cc3)cc12` (stereo not drawn), the GI50 in the assay on A498 was 18.8 µM (inactive); with HCT-116, 16.1 µM (inactive); in the assay on HOP-62, 17.5 µM (inactive); in the assay with IGROV-1, 16.9 µM (inactive); with MOLT-4, 16.9 µM (inactive); in the assay on NCI-H226, 17 µM (inactive). Further, the GI50 in the assay on NCI/ADR-RES is 36.9 µM (inactive); in the assay with PC-3 it was 16.3 µM (inactive); in the assay with SF-295 it was 20.3 µM (inactive); in the assay with SK-MEL-2, 8.39 µM (inactive); with SK-OV-3, 18.7 µM (inactive); with SN12C it was 13.7 µM (inactive). The GI50 was 11.3 µM (inactive) with SNB-75, 11.6 µM (inactive) in the assay on SR, 12.1 µM (inactive) in the assay with U-251 and 33 µM (inactive) in the assay on UO-31.

For `CC1=NNC(=O)C1C1CC(c2c[nH]c3ccccc23)=NNC1=S` (stereo not drawn), the GI50 is > 100 µM (inactive) in the assay on A498; > 100 µM (inactive) in the assay on HCT-116; > 100 µM (inactive) in the assay with HOP-62; > 100 µM (inactive) in the assay on HOP-92; 48.5 µM (inactive) in the assay with K562; 37.2 µM (inactive) in the assay with MOLT-4. The GI50 in the assay on NCI-H226, in the assay on NCI/ADR-RES, in the assay with PC-3, in the assay on SF-295, with SK-MEL-2 and in the assay with SK-OV-3 was > 100 µM (inactive) throughout. Besides, the GI50 in the assay with SN12C is > 100 µM (inactive); in the assay with SNB-75 it was > 100 µM (inactive); in the assay with U-251, > 100 µM (inactive); in the assay on UO-31, 30.6 µM (inactive).

As to `OCc1ccc2c(c1)CC1(Cc3ccc(/C=N/O)cc3C1)C2` (stereo not drawn), the GI50 in the assay on A498 was 27.7 µM (inactive); in the assay with HCT-116, 3.26 µM (inactive); with HOP-62, 5.45 µM (inactive); in the assay on HOP-92, 7.74 µM (inactive); with IGROV-1, 2.84 µM (inactive); with K562 it was 1.8 µM (inactive). Moreover, the GI50 in the assay with MOLT-4 was 4.73 µM (inactive); in the assay on NCI-H226, 10 µM (inactive); in the assay on NCI/ADR-RES, 3.32 µM (inactive); in the assay with PC-3, 3.74 µM (inactive); with SF-295, 2.43 µM (inactive); in the assay with SK-MEL-2 it was 7.26 µM (inactive). Moreover, the GI50 in the assay on SK-OV-3 is 6.05 µM (inactive); in the assay with SN12C, 2.61 µM (inactive); in the assay with SNB-75, 2.88 µM (inactive); in the assay on U-251, 2.86 µM (inactive); in the assay on UO-31 it was 7.08 µM (inactive).

`O=C1c2ccccc2C(=O)c2c1c1cc(O)ccc1n2Cc1ccc(Cl)cc1Cl`: the GI50 is 17.2 µM (inactive) with A498; 6.18 µM (inactive) with HCT-116; 2.61 µM (inactive) in the assay with HOP-62; 6.98 µM (inactive) in the assay with IGROV-1; 32.2 µM (inactive) in the assay on K562; 15.3 µM (inactive) with MOLT-4. Further, the GI50 is 11.5 µM (inactive) in the assay with NCI-H226; 3.08 µM (inactive) in the assay with NCI/ADR-RES; 1.61 µM (inactive) with PC-3; 7.5 µM (inactive) with SF-295; 16 µM (inactive) in the assay with SK-MEL-2; 1.75 µM (inactive) in the assay on SK-OV-3. Moreover, the GI50 was 3.88 µM (inactive) with SN12C, 3.61 µM (inactive) with SR, 3.46 µM (inactive) with U-251 and 19.1 µM (inactive) in the assay with UO-31.

In the case of `S=C1NCCN1C(=S)Nc1ccccc1`, the GI50 in the assay with A498 was 32.4 µM (inactive); in the assay with HCT-116, 91.2 µM (inactive); in the assay with HOP-62 it was > 100 µM (inactive); with HOP-92, 66.8 µM (inactive); in the assay with IGROV-1, > 100 µM (inactive); with K562, 74.6 µM (inactive). In addition, the GI50 with MOLT-4 is 34.8 µM (inactive); in the assay with NCI-H226, 51.4 µM (inactive); with NCI/ADR-RES, > 100 µM (inactive); with SF-295, > 100 µM (inactive); in the assay with SK-MEL-2, > 100 µM (inactive); in the assay on SK-OV-3, > 100 µM (inactive). In addition, the GI50 in the assay on SN12C was > 100 µM (inactive); in the assay on SNB-75, 32.4 µM (inactive); in the assay with SR it was 42.4 µM (inactive); with U-251, > 100 µM (inactive); with UO-31, 36.7 µM (inactive).

As to `NS(=O)(=O)c1nnc(NC(=O)C23CC4CC(CC(C4)C2)C3)s1`, the GI50 with A498, in the assay on HCT-116, with HOP-62, in the assay on HOP-92, in the assay on K562 and with MOLT-4 was > 100 µM (inactive) each time. Moreover, the GI50 with NCI-H226, with NCI/ADR-RES, in the assay on SF-295, in the assay with SK-MEL-2, in the assay on SK-OV-3 and with SN12C was > 100 µM (inactive) throughout. Further, the GI50 in the assay on SR, in the assay on U-251 and with UO-31 was > 100 µM (inactive) in each case.

Turning to `CN1CCC2(CC1)/C(=N/C1CCCCC1)NC(=S)N2c1ccccc1`, the GI50 in the assay with A498, in the assay with HCT-116, in the assay with HOP-62, with HOP-92, with IGROV-1 and in the assay with K562 was > 100 µM (inactive) each time. Moreover, the GI50 with MOLT-4, with NCI-H226, with NCI/ADR-RES, in the assay on SF-295, with SK-OV-3 and with SN12C was > 100 µM (inactive) throughout. Further, the GI50 with SNB-75, in the assay with SR, with U-251 and in the assay on UO-31 was > 100 µM (inactive) in each case.

As to `O=C(N/N=C(COc1cccc(Cl)c1)\N=C\c1ccncc1)c1ccncc1`, the GI50 with A498 was 68.9 µM (inactive); with HCT-116, > 100 µM (inactive); in the assay on HOP-62, > 100 µM (inactive); in the assay on HOP-92, 35.6 µM (inactive); with IGROV-1 it was > 100 µM (inactive); in the assay with K562, > 100 µM (inactive). The GI50 in the assay on MOLT-4, in the assay on NCI-H226, in the assay with NCI/ADR-RES, in the assay on PC-3, with SF-295 and in the assay on SK-MEL-2 was > 100 µM (inactive) in each case. For the same compound, the GI50 with SK-OV-3, in the assay on SN12C and with U-251 was > 100 µM (inactive) in each case.

With `CCC1(CC)C(=O)OC(=O)C1(CC)CC`, the GI50 with A498, in the assay with HCT-116, with HOP-62, in the assay on IGROV-1, with K562 and in the assay on MOLT-4 was > 100 µM (inactive) in each case. Further, the GI50 in the assay on NCI/ADR-RES, with PC-3, with SF-295, with SK-MEL-2, in the assay on SK-OV-3 and in the assay with SNB-75 was > 100 µM (inactive) throughout. Further, the GI50 in the assay with SR, with U-251 and with UO-31 was > 100 µM (inactive) each time.

Consider `COc1cccc2c(NNc3ccc(Cl)cc3)c3ccc([N+](=O)[O-])cc3nc12`, for which the GI50 with A498 was 12.9 µM (inactive); in the assay on HCT-116, 7.28 µM (inactive); in the assay with HOP-62, 10.9 µM (inactive); with HOP-92, 10.9 µM (inactive); in the assay with K562, 11.7 µM (inactive); with MOLT-4, 1.92 µM (inactive). The GI50 in the assay with NCI-H226 was 13.9 µM (inactive); with PC-3, 8.91 µM (inactive); in the assay with SF-295 it was 16.2 µM (inactive); in the assay with SK-MEL-2 it was 13 µM (inactive); in the assay on SK-OV-3, 15.1 µM (inactive); with SN12C it was 20.8 µM (inactive). Also, the GI50 in the assay on SR was 1.08 µM (active); in the assay on U-251, 11.7 µM (inactive); in the assay with UO-31, 5.33 µM (inactive).
